Bounds are passed on as bounds.

The target in this test is T1, mTOR (Homo sapiens, UniProt P42345).
T1 construct: N-terminal GST tag (amino acid 1360-2549, molecular weight=163.9 kDa); GST (N); host or cells: insect cells
Nature of the test: mTOR kinase activity, 32P-ATP P81 filter-binding method. To be noted: 3 μM 4EBP1 and 10 μM ATP; read-out: IC50 of mTOR enzyme activity. The format is biochemical. The protocol:
The activity of the test compounds of the present invention on mTOR kinase was tested by the test method below.
Reaction Buffer: 20 mM Hepes (pH 7.5), 10 mM MgCl2, 2 mM MnCl2, 1 mM EGTA, 0.02% Brij35, 0.02 mg/mL BSA, 0.1 mM Na3VO4, 2 mM DTT, 2% DMSO.
Enzyme for reaction: humanized recombinant mTOR fragment with a N-terminal GST tag (amino acid 1360-2549, molecular weight=163.9 kDa), expressed in insect cells.
Reaction Substrate: humanized recombinant full-length 4EBP1 with a N-terminal His tag (molecular weight=13.6 kDa), expressed in bacteria;
Reaction conditions: 3 μM 4EBP1 and 10 μM ATP.
1. The reaction substrate and other reaction factors were added to the freshly prepared reaction buffer.
2. The kinase was added to the substrate reaction and gently mixed.
3. The compound dissolved in 100% DMSO was transferred into the kinase reaction solution using Acoustic technology (Echo 550; nanoliter rang) and then incubated at room temperature for 20 min.
4. An appropriate concentration of ^32P-ATP was add to the reaction system.
5. It was incubated at room temperature for 2 hours.
6. Kinase activity was detected by the P81 filter-binding method.

T1 sequence (P42345 1360-2549): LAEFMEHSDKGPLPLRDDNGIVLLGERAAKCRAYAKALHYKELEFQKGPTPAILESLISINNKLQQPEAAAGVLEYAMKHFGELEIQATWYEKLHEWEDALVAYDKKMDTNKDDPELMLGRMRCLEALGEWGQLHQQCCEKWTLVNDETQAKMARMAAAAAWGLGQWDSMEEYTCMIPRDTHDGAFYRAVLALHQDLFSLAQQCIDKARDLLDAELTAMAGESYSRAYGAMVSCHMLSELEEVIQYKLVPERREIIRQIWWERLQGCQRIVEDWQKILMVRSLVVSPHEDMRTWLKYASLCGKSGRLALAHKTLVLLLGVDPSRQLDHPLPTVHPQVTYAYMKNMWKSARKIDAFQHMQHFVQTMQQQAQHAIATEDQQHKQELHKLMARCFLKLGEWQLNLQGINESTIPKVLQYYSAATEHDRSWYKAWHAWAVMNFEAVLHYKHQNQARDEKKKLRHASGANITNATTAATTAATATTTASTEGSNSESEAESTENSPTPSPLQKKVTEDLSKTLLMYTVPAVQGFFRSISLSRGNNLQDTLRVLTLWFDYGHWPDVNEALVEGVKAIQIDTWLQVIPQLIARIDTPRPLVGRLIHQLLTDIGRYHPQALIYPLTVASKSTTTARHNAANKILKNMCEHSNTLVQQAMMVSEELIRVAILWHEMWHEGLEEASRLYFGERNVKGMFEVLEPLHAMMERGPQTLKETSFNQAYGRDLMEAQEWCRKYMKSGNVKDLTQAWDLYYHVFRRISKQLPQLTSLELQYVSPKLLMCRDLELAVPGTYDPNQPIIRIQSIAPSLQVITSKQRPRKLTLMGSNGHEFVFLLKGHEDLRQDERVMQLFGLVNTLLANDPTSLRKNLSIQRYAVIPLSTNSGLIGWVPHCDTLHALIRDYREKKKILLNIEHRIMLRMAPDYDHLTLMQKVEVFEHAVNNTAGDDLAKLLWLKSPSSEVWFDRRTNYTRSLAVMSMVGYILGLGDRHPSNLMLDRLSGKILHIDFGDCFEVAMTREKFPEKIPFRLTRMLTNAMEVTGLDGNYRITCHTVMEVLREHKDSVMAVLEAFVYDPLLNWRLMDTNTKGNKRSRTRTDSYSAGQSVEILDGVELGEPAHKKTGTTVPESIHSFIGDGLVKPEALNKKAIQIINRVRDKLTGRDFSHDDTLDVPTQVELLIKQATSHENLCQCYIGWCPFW

The IC50 is the point on the concentration scale where inhibition reaches its midpoint. As to `COc1ncc(-c2ccc3ncc(OCCN(C)C)c(=O)n3c2)cc1NS(=O)(=O)c1ccc(F)cc1Cl` [Compound 1], the IC50 is above 200 nM.

Values taken from patent publication US10479789B2, “Pyrido[1,2-A]pyrimidone analog, crystal form thereof, intermediate thereof and preparation method therefor” (Chia Tai Tianqing Pharmaceutical Group Co., Ltd., priority 2015, dated 2019).
